Data as given in patent publication US20210172002A1, “DETECTING CELL VITALITY” (THE UNIVERSITY OF WARWICK, priority 2018, published 2021).

Assays:
B. subtilis = assay: Fluorescence response to an electric field in a mixed culture in the presence of vancomycin (FIG. 6); type: cell-based, Bacillus subtilis; settings: vancomycin treated B. subtilis cells in mixed culture with E. coli; trace 601 of FIG. 6
Description: (§1) In an experimental setup, bacterial cells were inoculated on agarose pads and placed on the electrode surface, enabling monitoring of cells at single-cell resolution by microscopy. The membrane potential dynamics of cells was monitored using the fluorescent Nernstian indicator dye, Thioflavin T (ThT), which has been used extensively with bacteria.
The sample (shown in FIG. 3) was subjected to alternating 3V pulses at a frequency of 100 Hz for 2.5 seconds. The mean response 501 of ten UV-treated cells is shown in FIG. 5 alongside the mean response 502 of ten non-UV-treated cells.
(§2) In the mixed culture. […] The presence of E. coli or other coliforms could therefore be confirmed through fluorescence analysis of a sample treated with a selective antibiotic such as vancomycin.

E. coli = assay: as above; type: cell-based, Escherichia coli; settings: E. coli cells in mixed culture with B. subtilis in the presence of vancomycin; trace 602 of FIG. 6
Description: as §1
When a series of electrical pulses (±1.5 V AC 0.1 kHz for 2.5 seconds) were applied to E. coli (K12 strain) cells placed in the electrode gaps, the pulses caused hyperpolarization (seen by an increase of ThT fluorescence signal) in vital cells. FIG. 3 illustrates the effect of applying an electric field across a sample 304 as viewed between a pair of opposing electrodes 301, 302 in an apparatus of the type illustrated in FIG. 1. […] An electric field was then applied, and the image shown represents the difference in fluorescence over a period of time after the application of the electric field. […] This provides a clear indication that the change in fluorescence is an indication of the vitality of cells within the sample.
as §2

SMILES: CN[C@H](CC(C)C)C(=O)N[C@H]1C(=O)N[C@@H](CC(N)=O)C(=O)N[C@H]2C(=O)N[C@H]3C(=O)N[C@H](C(=O)N[C@H](C(=O)O)c4cc(O)cc(O)c4-c4cc3ccc4O)[C@H](O)c3ccc(c(Cl)c3)Oc3cc2cc(c3O[C@@H]2O[C@H](CO)[C@@H](O)[C@H](O)[C@H]2O[C@H]2C[C@](C)(N)[C@H](O)[C@H](C)O2)Oc2ccc(cc2Cl)[C@H]1O [vancomycin]
- log of a fluorescent response (membrane potential change) (B. subtilis): depolarization
- log of a fluorescent response (membrane potential change) (E. coli): hyperpolarized
